One assay has as its target T1, TIE2 kinase (Homo sapiens, UniProt Q02763).
T1 construct: made in house; host or cells: baculovirus expression (insect cells)
The assay can be described thus: TIE2 kinase inhibition. Format: biochemical. From the text:
TIE-2 Enzyme Assay (TIE2-E)
The TIE-2 enzyme assay uses the LANCE method (Wallac) and GST-TIE2, baculovirus expressed recombinant constructs of the intracellular domains of human TIE2 (amino acids 762-1104, GenBank Accession #L06139) tagged by GST). The method measures the ability of the purified enzymes to catalyse the transfer of the γ-phosphate from ATP onto tyrosine residues in a biotinylated synthetic peptide, D1-15 (biotin-C6-LEARLVAYEGWVAGKKKamide). This peptide phosphorylation is detected using the following procedure: for enzyme preactivation, GST-TIE2 is incubated for 30 mins at room temperature with 2 mM ATP, 5 mM MgCl2 and 12.5 mM DTT in 22.5 MM HEPES buffer (pH7.4). Preactivated GST-TIE2 is incubated for 30mins at room temperature in 96 well plates with 1 uM D1-15 peptide, 80 uM ATP, 10 mM MgCl2, 0.1 mg/ml BSA and the test compound (diluted from a 10 mM stock in DMSO, final DMSO concentration is 2.4%) in 1 mM HEPES (pH7.4). The reaction is stopped by the addition of EDTA (final concentration 45 mM). Streptavidin linked-APC (allophycocyanin, Molecular Probe) and Europium-labeled anti-phosphorylated tyrosine antibody (Wallac) are then added at the final concentration of 17 ug/well and 2.1 ug/well, respectively. The APC signal is measured using an ARVO multilabel counter. (Wallac Berthold Japan). The percent inhibition of activity is calculated relative to blank control wells. The concentration of test compound that inhibits 50% of activity (IC50) is interpolated using nonlinear regression (Levernberg-Marquardt) and the equation, y=Vmax (1−x/(K+x))+Y2, where “K” is equal to the IC50. The IC50 values are converted to pIC50 values, i.e., -log IC50 in Molar concentration.
TIE-2 Enzyme Assay (TIE2-E2
The TIE-2 enzyme assay uses the LANCE method (Wallac) and GST-TIE2, baculovirus-expressed recombinant constructs of the intracellular domains of human TIE2 (amino acids 762-1104, GenBank Accession #L06139) tagged by GST). The method measures the ability of the purified enzymes to catalyse the transfer of the γ-phosphate from ATP onto tyrosine residues in a biotinylated synthetic peptide, D1-15 (biotin-C6-LEARLVAYEGWVAGKKKamide). This peptide phosphorylation is detected using the following procedure: for enzyme preactivation, GST-TIE2 is incubated for 2 hours at room temperature with 80 μM ATP, 10 mM MgCl2, 0.1 mg/ml BSA, 0.01% Tween 20 and 1 mM DTT in 100 mM HEPES buffer (pH7.4). […] The APC signal is measured using an Wallac Multilabel 1420 counter. […] The percent inhibition of activity is calculated relative to blank control wells. […]
Tie2 Fluorescence Polarization Kinase Activity Assay: (TIE2-FP) […]

Another assay has as its target Raf kinase. The assay can be described thus: Raf kinase inhibition. Type of assay: biochemical.

Structures are written as SMILES. Where a name gives a salt, the structure may show the parent alone. Some results are limits rather than exact numbers.

T1 sequence (Q02763 762-1104): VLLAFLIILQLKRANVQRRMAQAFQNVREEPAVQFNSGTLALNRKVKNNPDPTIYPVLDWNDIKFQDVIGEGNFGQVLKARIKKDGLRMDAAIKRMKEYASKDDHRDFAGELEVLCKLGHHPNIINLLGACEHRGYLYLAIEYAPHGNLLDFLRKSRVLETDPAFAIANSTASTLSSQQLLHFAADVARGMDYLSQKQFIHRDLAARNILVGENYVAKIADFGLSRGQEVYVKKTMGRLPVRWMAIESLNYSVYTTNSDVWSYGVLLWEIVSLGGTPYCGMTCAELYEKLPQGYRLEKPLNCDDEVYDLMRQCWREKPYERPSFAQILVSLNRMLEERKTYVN

The term IC50 denotes the concentration that inhibits the measured activity by half. A higher IC50 goes with lower potency. Turning to `CNC(=O)c1cc(Oc2ccc3c(c2)CCN3C(=O)Nc2cc(C(C)(C)C)on2)ccn1` [Example 7, 5-(2-Methylcarbamoyl-pyridin-4-yloxy)-2,3-dihydro-indole-1-carboxylic acid(5-tert-butyl-isoxazol-3-yl)-amide trifluoroacetate], the IC50 against TIE2 kinase is below 250 nM.

With `CNC(=O)c1cc(Oc2ccc3c(c2)CCN3C(=O)Nc2ccc(Cl)c(C(F)(F)F)c2)ccn1` [Example 8, 5-(2-Methylcarbamoyl-pyridin-4-yloxy)-2,3-dihydro-indole-1-carboxylic acid(4′-chloro-3′-trifluoromethyl-phenyl)-amide], on Raf kinase, the IC50 is below 250 nM. Compound `CNC(=O)c1cc(Oc2ccc3c(c2)CCN3C(=O)Nc2ccc(F)c(C(F)(F)F)c2)ccn1` [Example 4, 5-(2-Methylcarbamoyl-pyridin-4-yloxy)-2,3-dihydro-indole-1-carboxylic acid(4′-fluoro-3′-trifluoromethyl-phenyl)-amide] had an IC50 at TIE2 kinase below 250 nM. The same measure, in the same setting: to `CNC(=O)c1cc(Oc2ccc3c(c2)CCN3C(=O)Nc2cccc(C(F)(F)F)c2)ccn1` [Example 3, 5-(2-Methylcarbamoyl-pyridin-4-yloxy)-2,3-dihydro-indole-1-carboxylic acid(3′-trifluoromethyl-phenyl)-amide] belongs below 250 nM. Same read-out and setting: the figure for `CNC(=O)c1cc(Oc2ccc3c(c2)CCN3C(=O)Nc2cc(C(F)(F)F)cc(C(F)(F)F)c2)ccn1` [Example 6, 5-(2-Methylcarbamoyl-pyridin-4-yloxy)-2,3-dihydro-indole-1-carboxylic acid(bis-3′,5′-trifluoromethylphenyl)-amide] is below 250 nM.

(Values after patent US20060241149A1, “Chemical compounds” (priority 2002, published 2006).)
